Measured values taken from PubChem BioAssay (NCI).
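A five-concentration, 48-hour dose response in 96-well plates underlies each endpoint, interpolated linearly between surrounding concentrations. GI50: concentration for 50% inhibition of growth. Definition used: TGI = concentration required for complete inhibition of growth.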

Key:
Experiment in all cases: growth of human tumour cells (NCI), 48 h
A498 renal = tested on: A498 renal
NCI-H522 lung = tested on: NCI-H522 lung
ACHN renal = tested on: ACHN renal
COLO 205 colon = tested on: COLO 205 colon
IGROV1 ovarian = tested on: IGROV1 ovarian
MDA-MB-435 = tested on: MDA-MB-435
CAKI-1 renal = tested on: CAKI-1 renal
HCT-116 colon = tested on: HCT-116 colon
SR leukemia = tested on: SR leukemia
SNB-19 CNS = tested on: SNB-19 CNS

COc1ccccc1C1C(C#N)=C(N)Oc2cc(O)ccc21 (stereo not given)
GI50 (A498 renal): 36.8 µM
TGI (A498 renal): > 100 µM
GI50 (NCI-H522 lung): 3.15 µM
TGI (NCI-H522 lung): 17.1 µM
GI50 (ACHN renal): 22.3 µM
TGI (ACHN renal): 84 µM
GI50 (COLO 205 colon): 15.8 µM
TGI (COLO 205 colon): 36.6 µM
GI50 (IGROV1 ovarian): 1.98 µM
TGI (IGROV1 ovarian): 25.4 µM
GI50 (MDA-MB-435): 4.1 µM
TGI (MDA-MB-435): 9.52 µM
GI50 (CAKI-1 renal): 17.7 µM
TGI (CAKI-1 renal): 68.9 µM
GI50 (HCT-116 colon): 12.5 µM
TGI (HCT-116 colon): 26.4 µM
GI50 (SR leukemia): 3.48 µM
TGI (SR leukemia): 21.1 µM
GI50 (SNB-19 CNS): 21.3 µM
TGI (SNB-19 CNS): 99.8 µM

Cc1ccc(C(=O)N/N=C2/C(=O)c3c4ccccc4cc4cccc2c34)cc1
TGI (A498 renal): > 100 µM
TGI (NCI-H522 lung): 59.8 µM
TGI (ACHN renal): 39.3 µM
TGI (COLO 205 colon): > 100 µM
TGI (IGROV1 ovarian): > 85.2 µM
TGI (MDA-MB-435): > 73.4 µM
TGI (CAKI-1 renal): > 81 µM
TGI (HCT-116 colon): 27.3 µM
TGI (SR leukemia): > 100 µM
TGI (SNB-19 CNS): > 89.8 µM
